From ChEMBL document CHEMBL1143540, “Synthesis and in vivo antihyperglycemic activity of 5-(1H-pyrazol-3-yl)methyl-1H-tetrazoles” (2005)

Test system: Rattus norvegicus
Assay: Percent fall in blood glucose level in male Sprague-Dawley rats when at 100 mg/kg dose was calculated by AUC method
Type: functional

| Compound | Activity |
| --- | --- |
| CSCCOc1ccc(-c2cc(Cc3nnn[nH]3)[nH]n2)cc1 | 24.6% |
| CN(CCOc1ccc(-c2cc(Cc3nnn[nH]3)[nH]n2)cc1)Cc1ccccc1 | 18% |
| c1ccc2oc(-c3cc(Cc4nnn[nH]4)n[nH]3)cc2c1 | 6.2% |
| Clc1ccc(-c2cc(Cc3nnn[nH]3)[nH]n2)cc1 | 10.8% |
| c1csc(-c2cc(Cc3nnn[nH]3)n[nH]2)c1 | 21.4% |
| Brc1ccc(-c2cc(Cc3nnn[nH]3)[nH]n2)cc1 | 18% |
| CSc1ccc(-c2cc(Cc3nnn[nH]3)[nH]n2)cc1 | 6.06% |
| CN(C)C(=N)NC(=N)N [METFORMIN] | 12.9% |
| c1ccc(-c2cc(Cc3nnn[nH]3)n[nH]2)cc1 | 10.6% |
